Test results published in PubChem BioAssay (NCI).
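The compound was tested at five concentrations on cells cultured in 96-well plates, with a 48-hour exposure period. Abbreviation: GI50, concentration required for 50% inhibition of growth. TGI: concentration producing complete growth inhibition.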

What was measured:
Assay in all cases: NCI-60 cell line screen, 48 h
ACHN renal = test system: ACHN renal
LOX IMVI melanoma = test system: LOX IMVI melanoma
SF-268 CNS = test system: SF-268 CNS
SF-295 CNS = test system: SF-295 CNS
SW-620 colon = test system: SW-620 colon
SK-MEL-2 melanoma = test system: SK-MEL-2 melanoma

| SMILES | TGI (ACHN renal) | TGI (LOX IMVI melanoma) | TGI (SF-268 CNS) | TGI (SF-295 CNS) | TGI (SW-620 colon) | TGI (SK-MEL-2 melanoma) | GI50 (ACHN renal) | GI50 (LOX IMVI melanoma) | GI50 (SF-268 CNS) | GI50 (SF-295 CNS) | GI50 (SK-MEL-2 melanoma) | GI50 (SW-620 colon) |
| --- | --- | --- | --- | --- | --- | --- | --- | --- | --- | --- | --- | --- |
| CCN(CC)CCC(=O)N1CCc2c([nH]c3ccccc23)C1c1cccnc1 (stereo unspecified) | > 100 µM | > 100 µM | > 100 µM | > 100 µM | > 100 µM |  |  |  |  |  |  |  |
| O=c1[nH]c(=O)n(C2CC(O)C(CO)O2)cc1C#Cc1cc(C(F)(F)F)cc(C(F)(F)F)c1 (stereo unspecified) | > 100 µM | > 45.9 µM | > 100 µM | > 100 µM | > 100 µM | > 100 µM |  |  |  |  |  |  |
| N#CCCN(CCC#N)c1ccc(/C=N\c2nc(-c3ccccc3)cs2)cc1 | > 100 µM | > 100 µM | > 100 µM | > 100 µM | > 100 µM | > 100 µM |  |  |  |  |  |  |
| C[N+](C)(C)Cc1c(CC#N)[nH]c2ccccc12 | > 100 µM | > 100 µM | > 100 µM | > 100 µM | > 100 µM | > 100 µM |  |  |  |  |  |  |
| Oc1ccc2c3c1OC1C(=NN=C4CCC5(O)C6Cc7ccc(O)c8c7C5(CCN6CC5CC5)C4O8)CCC4(O)C(C2)N(CC2CC2)CCC314 (stereo unspecified) | > 100 µM | 39.1 µM | > 83.3 µM | 32.6 µM | 41.6 µM | 18.9 µM |  |  |  |  |  |  |
| CCOP(=O)(OCC)/C(C#N)=C/c1ccc[nH]1 | > 100 µM | > 100 µM | > 100 µM | > 100 µM | > 100 µM | > 100 µM |  |  |  |  |  |  |
| CCC[CH2][Sn]1([CH2]CCC)[O]C(=O)c2cccc(OC)c2[O]1 | 0.753 µM | 0.442 µM | 0.841 µM | 2.27 µM | 0.366 µM | 0.574 µM | 0.271 µM | 0.161 µM | 0.194 µM | 1.08 µM | 0.156 µM | 0.148 µM |
| Cn1cnc([N+](=O)[O-])c1Sc1nc2cccnc2s1 | 80.6 µM | 60.5 µM | 69.1 µM | > 100 µM | 26.6 µM |  |  |  |  |  |  |  |
| COC(=O)c1c(C)cc2c(c1O)C1(O)C(=O)c3cc4c(c(O)c3C(=O)C1(OC)C(O)C2)C(=O)C=C(NC1OC(C)C(OC)C(O)C1OC)C4=O (stereo unspecified) | 0.205 µM | 0.0866 µM | 0.648 µM | 0.146 µM | 0.164 µM | 0.149 µM |  |  |  |  |  |  |
| O=C(Nc1ccc([N+](=O)[O-])cc1C(=O)O)c1ccc([N+](=O)[O-])cc1 | > 100 µM | > 100 µM | > 100 µM | > 100 µM | > 100 µM | 92.2 µM |  |  |  |  |  |  |
| O=C1C2C(C(=O)N1c1ccccc1)C1(c3ccccc3)OC2(c2ccccc2)c2ccccc21 (stereo unspecified) | > 100 µM | > 100 µM | > 100 µM | > 100 µM | > 100 µM | > 100 µM |  |  |  |  |  |  |
| CN(C)CC(C)(C)C(/C=C/c1ccccc1)=N\Nc1ccccc1 | 1.25 µM | 15.7 µM | 15.4 µM | 0.907 µM | 10.4 µM | 31 µM |  |  |  |  |  |  |
| Cc1cc(NS(=O)(=O)c2ccc(NC(=O)c3cccc4cc5ccccc5nc34)cc2)no1 | 29.8 µM |  | > 100 µM | 59.1 µM | 70.2 µM | 41.4 µM |  |  |  |  |  |  |
| Cc1ccc([N+](=O)[O-])cc1NC(=O)C(=O)Cc1cc(=O)oc2cc(O)ccc12 | > 100 µM | 97 µM | > 100 µM | > 100 µM |  | > 100 µM |  |  |  |  |  |  |
| COc1ccc(CC2NCCc3cc(OC)c(OC)cc32)cc1 (stereo unspecified) | > 100 µM | > 100 µM | > 100 µM | > 100 µM | > 100 µM | > 100 µM |  |  |  |  |  |  |
| O=C1SC(c2ccccc2)(c2ccccc2)c2ccccc21 | > 100 µM | > 100 µM | > 100 µM | > 100 µM | > 100 µM | > 100 µM |  |  |  |  |  |  |
| Nc1ccc(C(=O)NN2C(=O)C(Cl)C2c2ccc([N+](=O)[O-])cc2)cc1 (stereo unspecified) | 27 µM | 5.2 µM | 12.2 µM | 28.3 µM | 26.2 µM | 31.8 µM |  |  |  |  |  |  |
| COCOCc1cc(OCc2ccccc2)c(OC)cc1Br | > 100 µM | > 100 µM | > 100 µM | > 100 µM | > 100 µM | > 100 µM |  |  |  |  |  |  |
| CC(=O)OC1(C#N)CC2OC1C1C2N1C(=O)OC(C)(C)C (stereo unspecified) | > 100 µM | > 100 µM | > 100 µM |  | > 100 µM | > 100 µM |  |  |  |  |  |  |
| Cc1ccc(-c2nc3c(C(=O)NCCN(C)C)cccc3[nH]2)cc1 | 28.9 µM | 24.6 µM | 48.9 µM | 53.7 µM | 28.6 µM | 32.8 µM |  |  |  |  |  |  |
| CC(C)[Si](OCC1CC(C[C@H]2CC(C[C@H]3C[C@@H](CO[Si](C(C)C)(C(C)C)C(C)C)OC(C)(C)O3)OC(C)(C)O2)OC(C)(C)O1)(C(C)C)C(C)C (stereo partly specified) | > 100 µM | > 100 µM | > 100 µM | > 100 µM | > 100 µM | > 100 µM |  |  |  |  |  |  |
| C=CCC12CC(=O)C=C1CCC1(C2)OCCO1 (stereo unspecified) | > 100 µM |  | > 100 µM |  | > 100 µM | > 100 µM |  |  |  |  |  |  |
| Cc1ccc(S(=O)(=O)N/N=C/c2oc(-c3ccccc3Cl)c(-c3ccccc3Cl)c2[N+](=O)[O-])cc1 | 39.2 µM |  | > 100 µM | > 100 µM | > 100 µM | 76.9 µM |  |  |  |  |  |  |
